According to PubChem BioAssay AID248 (DTP/NCI, 2004):
Values joined by “and” are separate entries in the source; they are usually repeats but may differ in a detail not shown here. Identical values can stand only once. Toxic doses and inconclusive results are not listed.

Test system: L1210 leukemia ip in BDF1 mice, survival T/C
Assay: NCI In Vivo Anticancer Drug Screen. Data for tumor model L1210 Leukemia (intraperitoneal) in B6D2F1 (BDF1) mice
Details: endpoint: mean survival time, higher = longer survival
Method: The antitumor activity of compounds was measured in mice bearing transplantable tumors. Survival or tumor size were measured and the results are expressed as the measurement made in the treated group (T) divided by the measurement made in the vehicle treated control group (C). The tumor model used in this assay is L1210 Leukemia (intraperitoneal) in B6D2F1 (BDF1) mice

[1] = dose: 100.0 mg/kg/injection, schedule: Q01DX009 (ip), vehicle: Klucel (hydroxypropylcellulose) (HPC)
[2] = dose: 200.0 mg/kg/injection, schedule: Q01DX009 (ip), vehicle: Klucel (hydroxypropylcellulose) (HPC)
[3] = dose: 400.0 mg/kg/injection, schedule: Q01DX009 (ip), vehicle: Klucel (hydroxypropylcellulose) (HPC)
[4] = dose: 12.5 mg/kg/injection, schedule: Q01DX009 (ip), vehicle: saline with Tween-80
[5] = dose: 25.0 mg/kg/injection, schedule: Q01DX009 (ip), vehicle: saline with Tween-80
[6] = dose: 50.0 mg/kg/injection, schedule: Q01DX009 (ip), vehicle: saline with Tween-80
[7] = dose: 50.0 mg/kg/injection, schedule: Q01DX009 (ip), vehicle: Klucel (hydroxypropylcellulose) (HPC)
[8] = dose: 100.0 mg/kg/injection, schedule: Q04DX002 (ip), vehicle: Klucel (hydroxypropylcellulose) (HPC)
[9] = dose: 200.0 mg/kg/injection, schedule: Q04DX002 (ip), vehicle: Klucel (hydroxypropylcellulose) (HPC)
[10] = dose: 400.0 mg/kg/injection, schedule: Q04DX002 (ip), vehicle: Klucel (hydroxypropylcellulose) (HPC)
[11] = dose: 50.0 mg/kg/injection, schedule: Q01DX001 (ip), vehicle: saline
[12] = dose: 50.0 mg/kg/injection, schedule: Q01DX001 (ip), vehicle: carboxymethylcellulose (CMC)
[13] = dose: 100.0 mg/kg/injection, schedule: Q01DX001 (ip), vehicle: carboxymethylcellulose (CMC)
[14] = dose: 200.0 mg/kg/injection, schedule: Q01DX001 (ip), vehicle: carboxymethylcellulose (CMC)
[15] = dose: 400.0 mg/kg/injection, schedule: Q01DX001 (ip), vehicle: carboxymethylcellulose (CMC)

What does the source list for `CCOC(=O)c1ccc(NC(=O)Oc2cc(=O)oc3ccccc23)cc1`?
T/C [1]: 97 % of control; T/C [2]: 95 % of control; T/C [3]: 96 % of control

Which T/C (dose: 21.0 mg/kg/injection, schedule: Q01DX Z (ip), vehicle: carboxymethylcellulose (CMC)) does the source give for `CCCNC(=O)c1cc(NC(=O)Nc2ccc(C3=NCCCN3)cc2)cc(NC(=O)Nc2ccc(C3=NCCCN3)cc2)c1` here?
Its T/C is 115 % of control.

And the T/C (dose: 42.0 mg/kg/injection, schedule: Q01DX Z (ip), vehicle: carboxymethylcellulose (CMC))?
The T/C was 113 % of control.

What about the T/C (dose: 84.0 mg/kg/injection, schedule: Q01DX Z (ip), vehicle: carboxymethylcellulose (CMC)) of the same compound?
The T/C was 117 % of control.

`CCCCn1c(C)nc2c(NN=C(N)N)c3ccccc3c(N=NC(=N)N)c21` was tested. Which T/C (dose: 7.5 mg/kg/injection, schedule: Q01DX Z (oral), vehicle: carboxymethylcellulose (CMC)) did it give?
The T/C was 102 % of control.

And the T/C (dose: 15.0 mg/kg/injection, schedule: Q01DX Z (ip), vehicle: carboxymethylcellulose (CMC))?
The T/C was 95 % of control.

And the T/C (dose: 15.0 mg/kg/injection, schedule: Q01DX Z (oral), vehicle: carboxymethylcellulose (CMC))?
Its T/C is 104 % of control.

And the T/C (dose: 30.0 mg/kg/injection, schedule: Q01DX Z (oral), vehicle: carboxymethylcellulose (CMC))?
Its T/C is 98 % of control.

What about the T/C (dose: 60.0 mg/kg/injection, schedule: Q01DX Z (oral), vehicle: carboxymethylcellulose (CMC)) of the same compound?
Its T/C is 98 % of control.

`O=P(NC12CC3CC(CC(C3)C1)C2)(N1CC1)N1CC1` was tested. Which T/C (dose: 4.0 mg/kg/injection, schedule: Q04DX003 (ip), vehicle: Klucel (hydroxypropylcellulose) (HPC)) did it give?
Its T/C is 107 % of control.

And the T/C (dose: 9.0 mg/kg/injection, schedule: Q04DX003 (ip), vehicle: Klucel (hydroxypropylcellulose) (HPC))?
The T/C was 150 % of control.

And the T/C (dose: 13.3 mg/kg/injection, schedule: Q04DX003 (ip), vehicle: Klucel (hydroxypropylcellulose) (HPC))?
Its T/C is 152 % of control and 182 % of control.

What about the T/C (dose: 20.0 mg/kg/injection, schedule: Q04DX003 (ip), vehicle: Klucel (hydroxypropylcellulose) (HPC)) of the same compound?
Its T/C is 155 % of control and 176 % of control and 225 % of control.

And the T/C (dose: 27.0 mg/kg/injection, schedule: Q01DX001 (ip), vehicle: Klucel (hydroxypropylcellulose) (HPC))?
Its T/C is 169 % of control.

What about the T/C (dose: 30.0 mg/kg/injection, schedule: Q04DX003 (ip), vehicle: Klucel (hydroxypropylcellulose) (HPC)) of the same compound?
Its T/C is 92 % of control.

How did the T/C [4] turn out when `NC(=S)N=Nc1c(O)[nH]c(=O)[nH]c1=O` was run?
The T/C was 98 % of control.

What about the T/C (dose: 12.5 mg/kg/injection, schedule: Q04DX003 (ip), vehicle: saline with Tween-80) of the same compound?
The T/C was 97 % of control.

And the T/C [5]?
The T/C was 104 % of control.

What about the T/C (dose: 25.0 mg/kg/injection, schedule: Q04DX003 (ip), vehicle: saline with Tween-80) of the same compound?
Its T/C is 92 % of control.

What about the T/C [6] of the same compound?
The T/C was 104 % of control.

What about the T/C (dose: 50.0 mg/kg/injection, schedule: Q04DX003 (ip), vehicle: saline with Tween-80) of the same compound?
The T/C was 96 % of control.

With `CC1CCN(C(=O)Nc2ccc(Cl)cc2[N+](=O)[O-])CC1` as the compound, how does the T/C [1] read?
The T/C was 92 % of control.

And the T/C [2]?
Its T/C is 97 % of control.

And the T/C [3]?
The T/C was 91 % of control.

Which results are given for `c1ccc(CSCc2ccccc2)cc1`?
T/C [7]: 97 % of control; T/C [1]: 105 % of control; T/C [8]: 105 % of control; T/C (dose: 100.0 mg/kg/injection, schedule: Q04DX003 (ip), vehicle: saline with Tween-80): 96 % of control; T/C [2]: 102 % of control and 86 % of control; T/C [9]: 105 % of control; T/C (dose: 200.0 mg/kg/injection, schedule: Q04DX003 (ip), vehicle: saline with Tween-80): 104 % of control; T/C [3]: 86 % of control; T/C [10]: 105 % of control; T/C (dose: 400.0 mg/kg/injection, schedule: Q04DX003 (ip), vehicle: saline with Tween-80): 96 % of control

For `CCNC(=O)NCc1ccccc1Cl`, which T/C [8] is on record?
The T/C was 97 % of control.

What about the T/C [9] of the same compound?
The T/C was 102 % of control.

And the T/C [10]?
Its T/C is 112 % of control.

What does the source list for `CCN(CC)c1ccc(/C=C/C(=O)c2ccc(N(CC)CC)cc2)cc1`?
T/C [1]: 94 % of control; T/C [2]: 97 % of control; T/C [3]: 97 % of control

For `O=S1(=O)C=CC1`, which T/C [11] is on record?
Its T/C is 115 % of control.

How did the T/C (dose: 6.25 mg/kg/injection, schedule: Q01DX009 (ip), vehicle: Klucel (hydroxypropylcellulose) (HPC)) turn out when `CC(=O)[O][Hg][c]1cc(C)cc([N+](=O)[O-])c1O` was run?
Its T/C is 94 % of control.

And the T/C (dose: 12.5 mg/kg/injection, schedule: Q01DX009 (ip), vehicle: Klucel (hydroxypropylcellulose) (HPC))?
Its T/C is 100 % of control.

What about the T/C (dose: 12.5 mg/kg/injection, schedule: Q04DX003 (ip), vehicle: Klucel (hydroxypropylcellulose) (HPC)) of the same compound?
The T/C was 100 % of control.

What about the T/C (dose: 25.0 mg/kg/injection, schedule: Q01DX009 (ip), vehicle: Klucel (hydroxypropylcellulose) (HPC)) of the same compound?
Its T/C is 92 % of control.

And the T/C (dose: 25.0 mg/kg/injection, schedule: Q04DX003 (ip), vehicle: Klucel (hydroxypropylcellulose) (HPC))?
Its T/C is 95 % of control.

What does the source list for `CC1=CC(=O)C(C(=O)CC(O)(C(F)(F)F)C(F)(F)F)C(=O)O1` (stereo not given)?
T/C [4]: 92 % of control; T/C [5]: 103 % of control; T/C [6]: 88 % of control

`COC(=O)c1ccc(=O)c2nc3/c(=C/O)c(O)cc(=O)c3[nH]c12` was tested. Which T/C (dose: 23.0 micrograms/kg/injection, schedule: Q01DX001 (ip), vehicle: acetone) did it give?
The T/C was 90 % of control.

What about the T/C (dose: 23.0 micrograms/kg/injection, schedule: Q01DX009 (ip), vehicle: saline) of the same compound?
The T/C was 100 % of control.

What about the T/C (dose: 23.0 micrograms/kg/injection, schedule: Q04DX003 (ip), vehicle: saline) of the same compound?
Its T/C is 110 % of control.

What about the T/C (dose: 47.0 micrograms/kg/injection, schedule: Q01DX001 (ip), vehicle: acetone) of the same compound?
Its T/C is 93 % of control.

And the T/C (dose: 47.0 micrograms/kg/injection, schedule: Q01DX009 (ip), vehicle: saline)?
The T/C was 113 % of control.

What about the T/C (dose: 47.0 micrograms/kg/injection, schedule: Q04DX003 (ip), vehicle: saline) of the same compound?
Its T/C is 97 % of control.

What about the T/C (dose: 95.0 micrograms/kg/injection, schedule: Q01DX001 (ip), vehicle: acetone) of the same compound?
Its T/C is 92 % of control.

What about the T/C (dose: 95.0 micrograms/kg/injection, schedule: Q04DX003 (ip), vehicle: saline) of the same compound?
Its T/C is 101 % of control.

For `COc1ccc2[nH]c(=O)ccc2c1`, which T/C (dose: 300.0 mg/kg/injection, schedule: Q01DX001 (ip), vehicle: Klucel (hydroxypropylcellulose) (HPC)) is on record?
The T/C was 98 % of control.

With `Oc1ccc(CCNCc2cc3c(cc2Br)OCO3)cc1` as the compound, how does the T/C [7] read?
Its T/C is 101 % of control.

What about the T/C [1] of the same compound?
The T/C was 96 % of control.

What about the T/C [2] of the same compound?
The T/C was 108 % of control.

For `Oc1c(Cl)cc(Cl)cc1C1N(Cc2ccc(N(CCCl)CCCl)cc2Cl)CCCN1Cc1ccc(N(CCCl)CCCl)cc1Cl`, which T/C [12] is on record?
The T/C was 109 % of control.

What about the T/C [13] of the same compound?
Its T/C is 105 % of control.

And the T/C [14]?
The T/C was 103 % of control.

What about the T/C [15] of the same compound?
The T/C was 103 % of control.

What does the source list for `N=C(N)C(N)=NCC(Br)CBr` (stereo not given)?
T/C (dose: 100.0 mg/kg/injection, schedule: Q04DX002 (ip), vehicle: saline): 93 % of control; T/C (dose: 200.0 mg/kg/injection, schedule: Q04DX002 (ip), vehicle: saline): 108 % of control

How did the T/C [12] turn out when `COc1ccc(CN2CCCN(Cc3ccc(OC)cc3OC)C2c2cccc([N+](=O)[O-])c2O)c(OC)c1` was run?
The T/C was 104 % of control.

What about the T/C [13] of the same compound?
The T/C was 98 % of control.

And the T/C [14]?
The T/C was 110 % of control.

And the T/C [15]?
The T/C was 98 % of control.

Which results are given for `O=C(c1ccc(Cl)cc1)C(NCCO)c1ccc(Cl)cc1` (stereo not given)?
T/C [11]: 97 % of control; T/C (dose: 100.0 mg/kg/injection, schedule: Q01DX001 (ip), vehicle: saline): 101 % of control; T/C (dose: 200.0 mg/kg/injection, schedule: Q01DX001 (ip), vehicle: saline): 95 % of control; T/C (dose: 400.0 mg/kg/injection, schedule: Q01DX001 (ip), vehicle: saline): 95 % of control

How did the T/C (dose: 100.0 mg/kg/injection, schedule: Q01DX001 (ip), vehicle: other) turn out when `ICc1ccnc2ccccc12` was run?
Its T/C is 100 % of control.

And the T/C (dose: 200.0 mg/kg/injection, schedule: Q01DX001 (ip), vehicle: other)?
The T/C was 103 % of control.

What about the T/C (dose: 400.0 mg/kg/injection, schedule: Q01DX001 (ip), vehicle: other) of the same compound?
The T/C was 100 % of control.

Which T/C (dose: 100.0 mg/kg/injection, schedule: Q04DX003 (ip), vehicle: saline) does the source give for `CN=C1N[N+]2=C(C)CSCC2(C)S1` (stereo not given) here?
Its T/C is 98 % of control.

What about the T/C (dose: 200.0 mg/kg/injection, schedule: Q04DX003 (ip), vehicle: saline) of the same compound?
The T/C was 98 % of control.

And the T/C (dose: 400.0 mg/kg/injection, schedule: Q04DX003 (ip), vehicle: saline)?
The T/C was 89 % of control.

Which results are given for `COCCNCC1OC(OC)C2OC(C)(C)OC12` (stereo not given)?
T/C (dose: 100.0 mg/kg/injection, schedule: Q01DX005 (ip), vehicle: saline): 104 % of control; T/C (dose: 200.0 mg/kg/injection, schedule: Q01DX005 (ip), vehicle: saline): 102 % of control
